In patent US10201564B2, “Methods of using inhaled nitric oxide gas for treatment of acute respiratory distress syndrome in children” (Mallinckrodt Hospital Products IP Limited, priority 2014, dated 2019):

Tests used:
Assay type in all cases: in vivo, human
[1] = test system: pediatric subjects with acute hypoxemic respiratory failure (AHRF); experiment: Pediatric AHRF study: vital signs (systolic and diastolic blood pressure); conditions: 5 ppm
Procedure: (§1) Standardized ventilatory management and weaning procedures were used. Ventilatory management was used based on an “open lung approach” using positive end-expiratory pressure (PEEP) to increase lung volume and limiting tidal volumes to reduce plateau pressures. Subjects received nitric oxide for inhalation at 5 ppm or placebo (100% Grade 5 nitrogen gas) into the inspiratory limb of the ventilator circuit using a blinded version of the INOvent® delivery system. The subjects were treated until Day 28 or extubation, whichever occurred first. Subjects were assessed daily using a spontaneous breathing trial, according to the institution's standard of care. Arterial blood gases (ABG), ventilator settings, methemoglobin, oxygenation index, systolic blood pressure, diastolic blood pressure, Pediatric Risk of Mortality (PRISM) III score, and subject positioning (prone or supine) were performed/recorded at specified times during the study. Selected centers also performed plasma cytokine assays, bronchoalveolar lavage fluid (BALF) assays, and a 6-month follow-up assessment.
(§2) The following assessments were made at baseline: arterial blood gases, ventilator settings, methemoglobin, prone position, PRISM III score, oxygenation index, systolic and diastolic blood pressure, bronchoalveolar lavage fluid assay and plasma cytokine.
(§3) The following assessments were made at 24 hours±2 hours after the start of therapy: arterial blood gases, ventilator settings, methemoglobin, systolic and diastolic blood pressure and plasma cytokine.
Mean systolic and diastolic blood pressure increased slightly from baseline in both groups at 24 hours. Descriptive statistics for systolic and diastolic blood pressure, which were taken both at baseline and at 24 hours, are summarized Table 26.

[2] = test system: patients with moderately severe Acute Lung Injury (ALI); experiment: Adult ALI/ARDS study, 5 ppm iNO versus placebo: efficacy and respiratory parameters; conditions: for mortality, benefit versus control: adults
Procedure: A large-scale, randomized, blinded, placebo-controlled study was carried out in the Intensive Care Units (ICUs) of 46 US hospitals to evaluate the efficacy of low-dose (5 ppm) iNO in 385 patients with moderately severe Acute Lung Injury (ALI). The primary endpoint of this study was number of days alive and off assisted breathing.
Patients had acute lung injury (ALI), defined by a modification of American-European Consensus Conference criteria (PaO2/inspired oxygen concentration [FiO2] ratio of ≤250 mm Hg), due to causes other than severe sepsis. Patients with evidence of non-pulmonary system failure at the time of randomization and sepsis-induced ARDS were excluded. Patients were also excluded if they had sustained hypotension requiring vasopressor support, hemodynamic profiles supporting severe sepsis, severe head injury, severe burns, or evidence of other significant organ system dysfunction at baseline.
Patients were randomly assigned to receive either inhaled placebo gas (nitrogen) or 5 ppm of iNO (INO Therapeutics Inc., Port Allen, La.). All patients, healthcare professionals, and investigators were blinded to the assigned treatment. Inhaled NO was administered via INOvent® delivery system (Datex-Ohmeda, Madison, Wis.) that blended treatment gas (nitrogen or NO at 100-ppm balance nitrogen) 1:20 with ventilator gases to achieve a target ppm value in the inspiratory limb of the ventilator.
All patients using the iNO delivery system received mechanical ventilatory support. Treatment continued with active or placebo gas until one of the following criteria were met: [1] end of trial (28 days); [2] death; or [3] adequate oxygenation (arterial oxygen saturation by pulse oximetry [SpO2]≥92% or PaO2 of ≥63 mm Hg) without treatment gas at ventilator settings of FiO2≤0.4 and positive end-expiratory pressure (PEEP) of ≤5 cm H2O. Decreases in treatment gas continued in 20% decrements (titrated down by 1 ppm for inhaled NO) every 30 minutes until either the treatment gas concentration reached 0% or oxygenation criteria were not satisfied. If oxygenation criteria were not met, treatment gas concentration was titrated up until they were again achieved. Increments of upward titration were determined by the clinician, based on degree of arterial desaturation.
Baseline oxygenation measures included PaO2, arterial partial pressure of CO2 (PaCO2), SpO2, FiO2, PEEP, PaO2/FiO2 ratio, […], tidal volume, and mean airway pressure. Respiratory parameters (FiO2, PEEP, and PaO2/FiO2 ratio) were recorded on case report forms every 12 hours during mechanical ventilation.
Between-group differences in baseline clinical and demographic characteristics were assessed with the Fisher's exact test and the chi-square test for categorical variables and with the Wilcoxon rank sum test for continuous variables. Baseline oxygenation and respiratory/oxygenation parameters in the two groups were compared using Wilcoxon rank sum tests. The areas under the curve (AUCs) of FiO2, PEEP, and PaO2/FiO2 ratio were calculated using the trapezoidal rule. The null hypothesis that the respective AUCs were normally distributed was rejected employing the Shapiro-Wilk test. A Wilcoxon rank sum test was utilized to assess the differences in each median AUC between treatment groups. A p value <0.05 was considered significant.

[3] = test system: pediatric subjects with acute hypoxemic respiratory failure (AHRF); experiment: Pediatric AHRF study: percent methemoglobin levels; conditions: 5 ppm
Procedure: as §1, §2
The following assessments were made at 4 hours±1 hour after the start of therapy: arterial blood gases, ventilator settings and methemoglobin.
as §3
Percent methemoglobin levels were obtained at baseline and at Hours 4 and 24. […] These levels were well below levels that would have necessitated discontinuation of treatment.

[N]=O [Nitric Oxide, nitric oxide]
Diastolic BP, Mean (SD) ([1]; 24 Hours): 56.0 (12.7) mmHg | Diastolic BP, Median ([1]; 24 Hours): 54.5 mmHg | Systolic BP, Mean (SD) ([1]; 24 Hours): 97.9 (21.7) mmHg | Systolic BP, Median ([1]; 24 Hours): 103.0 mmHg | Diastolic BP, Mean (SD) ([1]; Baseline): 54.6 (11.6) mmHg | Diastolic BP, Median ([1]; Baseline): 55.5 mmHg | Systolic BP, Mean (SD) ([1]; Baseline): 94.4 (17.4) mmHg | Systolic BP, Median ([1]; Baseline): 95.5 mmHg | days alive and meeting oxygenation criteria for extubation, benefit versus control ([2]; 5 ppm iNO vs nitrogen gas, intent-to-treat): no significant benefit | mortality, benefit versus control ([2]; 5 ppm iNO vs nitrogen gas, intent-to-treat, listed as Inhaled NO): did not improve | mortality, benefit versus control ([2]; 5 ppm iNO vs nitrogen gas, intent-to-treat, listed as iNO): no significant benefit | aggregate per-patient changes from baseline in supplemental oxygen, PEEP, or PaO2/FiO2 ratio, between groups ([2]; during mechanical ventilation, iNO vs placebo): no significant differences | partial pressure of arterial oxygen (PaO2) ([2]; initial 24 hours of treatment, resolved by 48 hours, p<0.05): significant increase | days alive and off assisted breathing, benefit versus control ([2]; primary endpoint, 5 ppm iNO vs nitrogen gas, intent-to-treat): no significant benefit | Methemoglobin level, Mean (SD) ([3]; 4 Hours): 0.64 (0.33) % | Methemoglobin level, Median ([3]; 4 Hours): 0.8% | Methemoglobin level, Mean (SD) ([3]; 24 Hours): 0.52 (0.37) % | Methemoglobin level, Median ([3]; 24 Hours): 0.5% | Methemoglobin level, Mean (SD) ([3]; Baseline): 0.56 (0.35) % | Methemoglobin level, Median ([3]; Baseline): 0.5% | Percent methemoglobin levels versus placebo group ([3]; at most time points, in words): equal to or less than | percent methemoglobin levels ([3]; baseline, Hours 4 and 24, in words): within normal limits
